Assay results published in ChEMBL document CHEMBL4049402, “Synthesis and cytotoxic activity of novel tetrahydrobenzodifuran-imidazolium salt derivatives” (Bioorg Med Chem Lett, 2017).

How the values were obtained:
HL-60 = assay: Cytotoxicity against human HL60 cells after 48 hrs by MTT assay; assay type: functional, cell-based; conditions: Homo sapiens, HL-60, 48 h
SMMC-7721 [1] = assay: Cytotoxicity against human SMMC7721 cells after 48 hrs by MTT assay; assay type: functional, cell-based; conditions: Homo sapiens, SMMC-7721, 48 h
A549 = assay: Cytotoxicity against human A549 cells after 48 hrs by MTT assay; assay type: functional, cell-based; conditions: Homo sapiens, A549, 48 h
MCF7 [2] = assay: Cytotoxicity against human MCF7 cells after 48 hrs by MTT assay; assay type: functional, cell-based; conditions: Homo sapiens, MCF7, 48 h
SW480 = assay: Cytotoxicity against human SW480 cells after 48 hrs by MTT assay; assay type: functional, cell-based; conditions: Homo sapiens, SW480, 48 h
SMMC-7721 [3] = assay: Potency index, ratio of cisplatin IC50 to compound IC50 for human SMMC7721 cells; assay type: functional
MCF7 [4] = assay: Potency index, ratio of cisplatin IC50 to compound IC50 for human MCF7 cells; assay type: functional
SMMC-7721 [5] = assay: Induction of apoptosis in human SMMC7721 cells assessed as live cells at 4 uM after 48 hrs by Annexin-V-FITC/propidium iodide staining based flow cytometry (reference value: 92.6%); assay type: functional
SMMC-7721 [6] = assay: Induction of apoptosis in human SMMC7721 cells assessed as early apoptotic cells at 4 uM after 48 hrs by Annexin-V-FITC/propidium iodide staining based flow cytometry (reference value: 1.82%); assay type: functional
SMMC-7721 [7] = assay: Induction of apoptosis in human SMMC7721 cells assessed as late apoptotic cells at 4 uM after 48 hrs by Annexin-V-FITC/propidium iodide staining based flow cytometry (reference value: 2.42%); assay type: functional
SMMC-7721 [8] = assay: Induction of apoptosis in human SMMC7721 cells assessed as necrotic cells at 4 uM after 48 hrs by Annexin-V-FITC/propidium iodide staining based flow cytometry (reference value: 3.18%); assay type: functional
SMMC-7721 [9] = assay: Induction of apoptosis in human SMMC7721 cells assessed as live cells at 8 uM after 48 hrs by Annexin-V-FITC/propidium iodide staining based flow cytometry (reference value: 92.6%); assay type: functional
SMMC-7721 [10] = assay: Induction of apoptosis in human SMMC7721 cells assessed as early apoptotic cells at 8 uM after 48 hrs by Annexin-V-FITC/propidium iodide staining based flow cytometry (reference value: 1.82%); assay type: functional
SMMC-7721 [11] = assay: Induction of apoptosis in human SMMC7721 cells assessed as late apoptotic cells at 8 uM after 48 hrs by Annexin-V-FITC/propidium iodide staining based flow cytometry (reference value: 2.42%); assay type: functional
SMMC-7721 [12] = assay: Induction of apoptosis in human SMMC7721 cells assessed as necrotic cells at 8 uM after 48 hrs by Annexin-V-FITC/propidium iodide staining based flow cytometry (reference value: 3.18%); assay type: functional
SMMC-7721 [13] = assay: Induction of apoptosis in human SMMC7721 cells assessed as live cells at 12 uM after 48 hrs by Annexin-V-FITC/propidium iodide staining based flow cytometry (reference value: 92.6%); assay type: functional
SMMC-7721 [14] = assay: Induction of apoptosis in human SMMC7721 cells assessed as early apoptotic cells at 12 uM after 48 hrs by Annexin-V-FITC/propidium iodide staining based flow cytometry (reference value: 1.82%); assay type: functional
SMMC-7721 [15] = assay: Induction of apoptosis in human SMMC7721 cells assessed as late apoptotic cells at 12 uM after 48 hrs by Annexin-V-FITC/propidium iodide staining based flow cytometry (reference value: 2.42%); assay type: functional
SMMC-7721 [16] = assay: Induction of apoptosis in human SMMC7721 cells assessed as necrotic cells at 12 uM after 48 hrs by Annexin-V-FITC/propidium iodide staining based flow cytometry (reference value: 3.18%); assay type: functional
SMMC-7721 [17] = assay: Induction of apoptosis in human SMMC7721 cells assessed as live cells at 16 uM after 48 hrs by Annexin-V-FITC/propidium iodide staining based flow cytometry (reference value: 92.6%); assay type: functional
SMMC-7721 [18] = assay: Induction of apoptosis in human SMMC7721 cells assessed as early apoptotic cells at 16 uM after 48 hrs by Annexin-V-FITC/propidium iodide staining based flow cytometry (reference value: 1.82%); assay type: functional
SMMC-7721 [19] = assay: Induction of apoptosis in human SMMC7721 cells assessed as late apoptotic cells at 16 uM after 48 hrs by Annexin-V-FITC/propidium iodide staining based flow cytometry (reference value: 2.42%); assay type: functional
SMMC-7721 [20] = assay: Induction of apoptosis in human SMMC7721 cells assessed as necrotic cells at 16 uM after 48 hrs by Annexin-V-FITC/propidium iodide staining based flow cytometry (reference value: 3.18%); assay type: functional
SMMC-7721 [21] = assay: Cell cycle arrest in human SMMC7721 cells assessed as accumulation at G0/G1 phase at 2 uM after 24 hrs by propidium iodide staining based flow cytometry (reference value: 70.12 +/- 0.18%); assay type: functional
SMMC-7721 [22] = assay: Cell cycle arrest in human SMMC7721 cells assessed as accumulation at G0/G1 phase at 4 uM after 24 hrs by propidium iodide staining based flow cytometry (reference value: 70.12 +/- 0.18%); assay type: functional
SMMC-7721 [23] = assay: Cell cycle arrest in human SMMC7721 cells assessed as accumulation at S phase at 2 uM after 24 hrs by propidium iodide staining based flow cytometry (reference value: 20.18 +/- 0.02%); assay type: functional
SMMC-7721 [24] = assay: Cell cycle arrest in human SMMC7721 cells assessed as accumulation at S phase at 4 uM after 24 hrs by propidium iodide staining based flow cytometry (reference value: 20.18 +/- 0.02%); assay type: functional
SMMC-7721 [25] = assay: Cell cycle arrest in human SMMC7721 cells assessed as accumulation at G2/M phase at 2 uM after 24 hrs by propidium iodide staining based flow cytometry (reference value: 3.12 +/- 0.02%); assay type: functional
SMMC-7721 [26] = assay: Cell cycle arrest in human SMMC7721 cells assessed as accumulation at G2/M phase at 4 uM after 24 hrs by propidium iodide staining based flow cytometry (reference value: 3.12 +/- 0.02%); assay type: functional
SMMC-7721 [27] = assay: Cell cycle arrest in human SMMC7721 cells assessed as increase in G1 population after 24 hrs by propidium iodide staining based flow cytometry; assay type: functional

Cc1n(Cc2c3c(cc4c2OCC4)OCC3)c2ccccc2[n+]1CC(=O)c1ccc2ccccc2c1.[Br-]
IC50 (HL-60): 800 nM
IC50 (SMMC-7721 [1]): 4.52 µM
IC50 (A549): 6.1 µM
IC50 (MCF7 [2]): 1650 nM
IC50 (SW480): 4.49 µM
Ratio IC50 (SMMC-7721 [3]): 2.7
Ratio IC50 (MCF7 [4]): 8.4
Activity (SMMC-7721 [5]): 91.9%
Activity (SMMC-7721 [6]): 1.43%
Activity (SMMC-7721 [7]): 3.18%
Activity (SMMC-7721 [8]): 3.44%
Activity (SMMC-7721 [9]): 87.1%
Activity (SMMC-7721 [10]): 0.86%
Activity (SMMC-7721 [11]): 4.64%
Activity (SMMC-7721 [12]): 7.42%
Activity (SMMC-7721 [13]): 30.7%
Activity (SMMC-7721 [14]): 0.98%
Activity (SMMC-7721 [15]): 37.3%
Activity (SMMC-7721 [16]): 31%
Activity (SMMC-7721 [17]): 0.69%
Activity (SMMC-7721 [18]): 0.43%
Activity (SMMC-7721 [19]): 92.4%
Activity (SMMC-7721 [20]): 6.48%
Activity (SMMC-7721 [21]): 70.58%
Activity (SMMC-7721 [22]): 79.57%
Activity (SMMC-7721 [23]): 14.85%
Activity (SMMC-7721 [24]): 8.75%
Activity (SMMC-7721 [25]): 4.37%
Activity (SMMC-7721 [26]): 0.94%
Activity (SMMC-7721 [27]): Dose-dependent effect
